Experimental findings from patent US20250179047A1, “5-[7-(3,4-DIHYDRO-1H-ISOQUINOLINE-2-CARBONYL)-1,2,3,4 TETRAHYDROISOQUINOLIN-6-YL]-1H-PYRROLE-3-CARBOXAMIDE DERIVATIVES, PHARMACEUTICAL COMPOSITIONS CONTAINING THEM AND THEIR USES AS PRO-APOPTOTIC AGENTS” (LES LABORATOIRES SERVIER, priority 2022, published 2025) are described below.

In one experiment the test system is KMS-12-PE Bcl-2 WT. Put plainly: In vitro cytotoxicity CellTiter-Glo 48 h, KMS-12-PE Bcl-2 WT. Format: cell-based. The note with it: Homo sapiens, KMS-12-PE, C50 = concentration needed to reach 50% of the cellular viability. In outline: (§1)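 Bcl-2 WT- and G101V-expressing KMS-12-PE cells; 48 h treatment at 37 °C, 5% CO2; CellTiter-Glo ATP luminescence; C50 from 11-point curves.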

In experiment [1] the test system is BCL2 G101V. In words: TR-FRET competitive binding assay, BCL2 G101V. On the set-up: species or system human. The conditions noted are these: ratio Ki BCL2 G101V / Ki BCL2 WT. In a few lines: (§2)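 Terbium-labelled N-terminal Halo-fusion BCL2 or BCLXL (E. coli), 0.5 nM, competed against fluorescein-labelled PUMA peptide (2 or 20 nM) for 2 h at 23° C in 50 mM Hepes pH 7.5, 150 mM NaCl, 5% DMSO. TR-FRET 520/495 nm ratio gave IC50 by four-parameter fit; Ki derived from IC50.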

Experiment [2] concerns the target BCL2 G101V (Homo sapiens, UniProt P10415, G101V). In words: TR-FRET competitive binding assay, BCL2 G101V. The note with it: BCL2 G101V; Ki determined from IC50; read-out: TR_FRET EKI_Bcl2 G101V. In a few lines:
as §2

A further experiment deals with BCLXL WT (Homo sapiens (Human), UniProt Q07817). Put plainly: TR-FRET competitive binding assay, BCLXL WT. The conditions noted are these: for Ki: BCLXL WT, Ki determined from IC50, read-out: TR_FRET EKI BclxL; for TR_FRET EKI BCLxL/WT selectivty ratio: ratio Ki BCLxL / Ki BCL2 WT. In a few lines:
as §2

The next experiment relates to KMS-12-PE Bcl-2 G101V. Put plainly: In vitro cytotoxicity CellTiter-Glo 48 h, KMS-12-PE Bcl-2 G101V. In kind it is cell-based. The note with it: for Ratio (G101V/WT): C50 KMS-12-PE Bcl-2 G101V over C50 KMS-12-PE Bcl-2 WT; for IC50: Homo sapiens, KMS-12-PE, 48 h, CellTiter-Glo, C50 = concentration needed to reach 50% of the cellular viability. In outline: as §1
The target of the next experiment is BCL2 WT (Homo sapiens (Human), UniProt P10415). Put plainly: TR-FRET competitive binding assay, BCL2 WT. The conditions noted are these: Ki determined from IC50, read-out: TR_FRET EKI_Bcl2 WT. In a few lines:
as §2

The next experiment deals with BCL2 D103Y (Homo sapiens, UniProt P10415, D103Y). Put plainly: TR-FRET competitive binding assay, BCL2 D103Y. The note with it: Ki determined from IC50, read-out: TR_FRET EKI_Bcl2 D103Y. In outline:
as §2

Chain of BCLXL WT (Q07817 other isoform, or with tags, fused parts or gaps): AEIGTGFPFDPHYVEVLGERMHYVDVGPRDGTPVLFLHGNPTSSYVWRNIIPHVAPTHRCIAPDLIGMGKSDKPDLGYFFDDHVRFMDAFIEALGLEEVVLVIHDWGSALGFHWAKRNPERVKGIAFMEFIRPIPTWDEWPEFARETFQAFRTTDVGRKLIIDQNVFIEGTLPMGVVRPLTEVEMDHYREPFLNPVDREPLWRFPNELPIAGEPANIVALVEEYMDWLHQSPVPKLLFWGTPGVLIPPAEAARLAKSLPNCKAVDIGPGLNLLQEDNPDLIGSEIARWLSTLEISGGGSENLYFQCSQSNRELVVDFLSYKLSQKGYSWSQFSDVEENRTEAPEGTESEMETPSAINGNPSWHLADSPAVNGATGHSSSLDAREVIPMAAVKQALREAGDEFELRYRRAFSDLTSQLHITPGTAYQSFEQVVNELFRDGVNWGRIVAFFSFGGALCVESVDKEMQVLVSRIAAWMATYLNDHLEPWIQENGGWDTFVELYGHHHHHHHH

Take `Cc1c(N(C(=O)c2cc(-c3cc4c(cc3C(=O)N3Cc5ccccc5C[C@H]3C)CN(C(=O)Cc3ccc(Oc5ccccc5)cc3)CC4)n(C)c2C)c2ccc(O)cc2)cc(C#N)n1C` [Example 10, N-(5-cyano-1,2-dimethyl-1H-pyrrol-3-yl)-N-(4-hydroxyphenyl)-1,2-dimethyl-5-{7-[(3R)-3-methyl-1,2,3,4-tetrahydroisoquinoline-2-carbonyl]-2-[2-(4-phenoxyphenyl)acetyl]-1,2,3,4-tetrahydroisoquinolin-6-yl}-1H-pyrrole-3-carboxamide]: the IC50 came out at 0.014 µM in the experiment on KMS-12-PE Bcl-2 WT and 0.0641 µM in the experiment with KMS-12-PE Bcl-2 G101V. Also, the “TR_FRET EKI G101V/WT selectivty ratio” value with BCL2 G101V [1] is given as 2.6. Further, the Ki on BCL2 G101V [2] was determined as 5.7 nM; on BCLXL WT, 31.2 nM; at BCL2 WT, 2.2 nM; at BCL2 D103Y, 2.98 nM. Moreover, the “TR_FRET EKI BCLxL/WT selectivty ratio” value on BCLXL WT is 14.2. For the same compound, the “Ratio (G101V/WT)” value with KMS-12-PE Bcl-2 G101V is 4.58.
Regarding `Cc1c(N(C(=O)c2cc(-c3cc4c(cc3C(=O)N3Cc5ccccc5C[C@H]3C)CN(C(=O)Cc3ccc(F)cc3F)CC4)n(C)c2C)c2ccc(O)cc2)cc(C#N)n1C` [Example 11, N-(5-cyano-1,2-dimethyl-1H-pyrrol-3-yl)-5-{2-[2-(2,4-difluorophenyl)acetyl]-7-[(3R)-3-methyl-1,2,3,4-tetrahydroisoquinoline-2-carbonyl]-1,2,3,4-tetrahydroisoquinolin-6-yl}-N-(4-hydroxyphenyl)-1,2-dimethyl-1H-pyrrole-3-carboxamide], the IC50 with KMS-12-PE Bcl-2 WT was determined as 0.0035 µM; with KMS-12-PE Bcl-2 G101V it was 0.0249 µM. Moreover, in the experiment with BCL2 G101V [1], the “TR_FRET EKI G101V/WT selectivty ratio” value is listed as 3.8. In addition, the Ki was determined as 1.3 nM on BCL2 G101V [2], 4.8 nM on BCLXL WT, 0.34 nM on BCL2 WT and 0.55 nM on BCL2 D103Y. Also, the “TR_FRET EKI BCLxL/WT selectivty ratio” value on BCLXL WT is 14.1. In addition, the “Ratio (G101V/WT)” value in the experiment with KMS-12-PE Bcl-2 G101V is reported as 7.05.
For the compound `Cc1c(N(C(=O)c2cc(-c3cc4c(cc3C(=O)N3Cc5ccccc5C[C@H]3C)CN(C(=O)Cc3ccccc3)CC4)n(C)c2C)c2ccc(O)cc2F)cc(C#N)n1C` [Example 13, N-(5-cyano-1,2-dimethyl-1H-pyrrol-3-yl)-N-(2-fluoro-4-hydroxyphenyl)-1,2-dimethyl-5-{7-[(3R)-3-methyl-1,2,3,4-tetrahydroisoquinoline-2-carbonyl]-2-(2-phenylacetyl)-1,2,3,4-tetrahydroisoquinolin-6-yl}-1H-pyrrole-3-carboxamide], the IC50 amounted to 0.0131 µM with KMS-12-PE Bcl-2 WT and 0.0704 µM with KMS-12-PE Bcl-2 G101V. Further, the “TR_FRET EKI G101V/WT selectivty ratio” value with BCL2 G101V [1] was 2.0. Further, the Ki worked out at 2 nM at BCL2 G101V [2], 4.6 nM at BCLXL WT, 1 nM on BCL2 WT and 2.35 nM on BCL2 D103Y. In addition, the “TR_FRET EKI BCLxL/WT selectivty ratio” value at BCLXL WT is 4.6. Besides, in the experiment with KMS-12-PE Bcl-2 G101V, the “Ratio (G101V/WT)” value amounted to 5.37.
For `Cc1c(N(C(=O)c2cc(-c3cc4c(cc3C(=O)N3Cc5ccccc5C[C@H]3C)CN(C(=O)c3n[nH]c5ccccc35)CC4)n(C)c2C)c2ccc(O)cc2)cc(C#N)n1C` [Example 15, N-(5-cyano-1,2-dimethyl-1H-pyrrol-3-yl)-N-(4-hydroxyphenyl)-5-[2-(1H-indazole-3-carbonyl)-7-[(3R)-3-methyl-1,2,3,4-tetrahydroisoquinoline-2-carbonyl]-1,2,3,4-tetrahydroisoquinolin-6-yl]-1,2-dimethyl-1H-pyrrole-3-carboxamide], the IC50 is 0.0166 µM in the experiment with KMS-12-PE Bcl-2 WT and 0.0714 µM with KMS-12-PE Bcl-2 G101V. Also, the “TR_FRET EKI G101V/WT selectivty ratio” value in the experiment with BCL2 G101V [1] came to 9.1. Moreover, the Ki at BCL2 G101V [2] worked out at 6.1 nM; on BCLXL WT, 8.4 nM; on BCL2 WT, 0.67 nM; at BCL2 D103Y it was 3.01 nM. The “TR_FRET EKI BCLxL/WT selectivty ratio” value on BCLXL WT is listed as 12.5. The “Ratio (G101V/WT)” value in the experiment on KMS-12-PE Bcl-2 G101V is listed as 4.3.
For the compound `Cc1c(N(C(=O)c2cc(-c3cc4c(cc3C(=O)N3Cc5ccccc5C[C@H]3C)CN(C(=O)Cc3ccc(Cl)cc3F)CC4)n(C)c2C)c2ccc(O)cc2)cc(C#N)n1C` [Example 19, 5-{2-[2-(4-chloro-2-fluorophenyl)acetyl]-7-[(3R)-3-methyl-1,2,3,4-tetrahydroisoquinoline-2-carbonyl]-1,2,3,4-tetrahydroisoquinolin-6-yl}-N-(5-cyano-1,2-dimethyl-1H-pyrrol-3-yl)-N-(4-hydroxyphenyl)-1,2-dimethyl-1H-pyrrole-3-carboxamide], the IC50 in the experiment with KMS-12-PE Bcl-2 WT amounted to 0.0061 µM; with KMS-12-PE Bcl-2 G101V, 0.0423 µM. Further, the “TR_FRET EKI G101V/WT selectivty ratio” value in the experiment with BCL2 G101V [1] came to 4.8. The Ki at BCL2 G101V [2] was 1.9 nM; at BCLXL WT, 7.4 nM; at BCL2 WT it was 0.4 nM; on BCL2 D103Y it was 0.97 nM. Moreover, the “TR_FRET EKI BCLxL/WT selectivty ratio” value on BCLXL WT is 18.5. Besides, in the experiment on KMS-12-PE Bcl-2 G101V, the “Ratio (G101V/WT)” value stood at 6.91.
Take `Cc1c(N(C(=O)c2cc(-c3cc4c(cc3C(=O)N3Cc5ccccc5C[C@H]3C)CN(C(=O)C3Cc5ccccc5O3)CC4)n(C)c2C)c2ccc(O)cc2)cc(C#N)n1C` (stereo partly drawn) [Example 20, N-(5-cyano-1,2-dimethylpyrrol-3-yl)-5-{2-[(2,3-dihydro-1-benzofuran-2-yl)carbonyl]-7-{[(3R)-3-methyl-3,4-dihydro-1H-isoquinolin-2-yl]carbonyl}-3,4-dihydro-1H-isoquinolin-6-yl}-N-(4-hydroxyphenyl)-1,2-dimethylpyrrole-3-carboxamide]: the IC50 is 0.0101 µM in the experiment on KMS-12-PE Bcl-2 WT and 0.0681 µM with KMS-12-PE Bcl-2 G101V. Also, the “TR_FRET EKI G101V/WT selectivty ratio” value with BCL2 G101V [1] is 5.0. The Ki at BCL2 G101V [2] amounted to 2.7 nM; at BCLXL WT it was 6.6 nM; on BCL2 WT, 0.53 nM; on BCL2 D103Y, 0.68 nM. Moreover, the “TR_FRET EKI BCLxL/WT selectivty ratio” value at BCLXL WT stood at 12.5. The “Ratio (G101V/WT)” value in the experiment with KMS-12-PE Bcl-2 G101V is given as 6.74.
For `Cc1c(C(=O)N(c2ccc(O)cc2)c2cc(C#N)n(CCN(C)C3CC3)c2C)cc(-c2cc3c(cc2C(=O)N2Cc4ccccc4C[C@H]2C)CN(C(=O)Cc2ccccc2)CC3)n1C` [Example 22, N-[5-cyano-1-[2-[cyclopropyl(methyl)amino]ethyl]-2-methyl-pyrrol-3-yl]-N-(4-hydroxyphenyl)-1,2-dimethyl-5-[7-[(3R)-3-methyl-3,4-dihydro-1H-isoquinoline-2-carbonyl]-2-(2-phenylacetyl)-3,4-dihydro-1H-isoquinolin-6-yl]pyrrole-3-carboxamide], the figures for the IC50 in the experiment with KMS-12-PE Bcl-2 WT and with KMS-12-PE Bcl-2 G101V were 0.0102 µM and 0.0864 µM, respectively. In addition, in the experiment on BCL2 G101V [1], the “TR_FRET EKI G101V/WT selectivty ratio” value was determined as 5.0. Also, the Ki on BCL2 G101V [2] is 1 nM; at BCLXL WT, 2.3 nM; at BCL2 WT, 0.2 nM; on BCL2 D103Y, 0.82 nM. The “TR_FRET EKI BCLxL/WT selectivty ratio” value at BCLXL WT is on record as 11.5. The “Ratio (G101V/WT)” value with KMS-12-PE Bcl-2 G101V came to 8.47.
Take `Cc1c(N(C(=O)c2cc(-c3cc4c(cc3C(=O)N3Cc5ccccc5C[C@H]3C)CN(C(=O)Cc3ccc(Br)cc3F)CC4)n(C)c2C)c2ccc(O)cc2)cc(C#N)n1C` [Example 24, 5-{2-[2-(4-bromo-2-fluorophenyl)acetyl]-7-[(3R)-3-methyl-1,2,3,4-tetrahydroisoquinoline-2-carbonyl]-1,2,3,4-tetrahydroisoquinolin-6-yl}-N-(5-cyano-1,2-dimethyl-1H-pyrrol-3-yl)-N-(4-hydroxyphenyl)-1,2-dimethyl-1H-pyrrole-3-carboxamide]: the values for the IC50 with KMS-12-PE Bcl-2 WT and in the experiment on KMS-12-PE Bcl-2 G101V were 0.0059 µM and 0.0423 µM, respectively. Also, in the experiment on BCL2 G101V [1], the “TR_FRET EKI G101V/WT selectivty ratio” value came to 3.4. Besides, the Ki amounted to 1.8 nM at BCL2 G101V [2], 6.1 nM on BCLXL WT, 0.53 nM on BCL2 WT and 1.02 nM on BCL2 D103Y. In addition, the “TR_FRET EKI BCLxL/WT selectivty ratio” value on BCLXL WT came to 11.5. In addition, the “Ratio (G101V/WT)” value with KMS-12-PE Bcl-2 G101V came to 7.19.
With `Cc1c(N(C(=O)c2cc(-c3cc4c(cc3C(=O)N3Cc5ccccc5C[C@H]3C)CN(C(=O)Cc3ccc(OCCN5CCN(CC(F)(F)F)CC5)cc3)CC4)n(C)c2C)c2ccc(O)cc2)cc(C#N)n1C` [Example 32, N-(5-cyano-1,2-dimethyl-1H-pyrrol-3-yl)-N-(4-hydroxyphenyl)-1,2-dimethyl-5-{7-[(3R)-3-methyl-1,2,3,4-tetrahydroisoquinoline-2-carbonyl]-2-[2-(4-{2-[4-(2,2,2-trifluoroethyl)piperazin-1-yl]ethoxy}phenyl)acetyl]-1,2,3,4-tetrahydroisoquinolin-6-yl}-1H-pyrrole-3-carboxamide], the IC50 is 0.0073 µM in the experiment with KMS-12-PE Bcl-2 WT and 0.0393 µM with KMS-12-PE Bcl-2 G101V. Besides, in the experiment on BCL2 G101V [1], the “TR_FRET EKI G101V/WT selectivty ratio” value is on record as 2.6. In addition, the Ki on BCL2 G101V [2] was determined as 1.7 nM; at BCLXL WT, 6.7 nM; on BCL2 WT, 0.64 nM; on BCL2 D103Y, 1.04 nM. Moreover, the “TR_FRET EKI BCLxL/WT selectivty ratio” value at BCLXL WT was 10.5. Also, in the experiment with KMS-12-PE Bcl-2 G101V, the “Ratio (G101V/WT)” value worked out at 5.38.
